Assay results from article PMC6447596 (2019).

Columns and labels:
[1] = tested on: Oligo A (DNA, G4) GGATGGGGTGGGGAGG; assay: CD melting (264 nm); settings: 5 mM K+, 95 mM Li+ (5 K buffer); 5 µM oligo; 2 eq RHPS4; 10 mM Li cacodylate pH 7.2
[2] = tested on: Oligo B (DNA, G4) GGGGGATGCGGGGG; assay: CD melting (260 nm alone, 295 nm with RHPS4); settings: 5 mM K+, 95 mM Li+ (5 K buffer); 5 µM oligo; 2 eq RHPS4; 10 mM Li cacodylate pH 7.2
[3] = tested on: Oligo B (DNA, G4) GGGGGATGCGGGGG; assay: UV-Vis titration; settings: 5 mM K+, 95 mM Li+ (5 K buffer); 10 mM Li cacodylate pH 7.2; 20 µM RHPS4 titrated with annealed oligo; two-state direct fit
[4] = tested on: F21D (DNA, G4) GGGTTAGGGTTAGGGTTAGGG; assay: FRET melting; settings: 5 mM K+, 95 mM Li+ (5 K buffer); 10 mM Li cacodylate pH 7.2; 0.2 µM F21D; sub-micromolar RHPS4; printed 'at least 15 °C'
[5] = tested on: Oligo A (DNA, G4) GGATGGGGTGGGGAGG; assay: UV-Vis titration; settings: 5 mM K+, 95 mM Li+ (5 K buffer); 10 mM Li cacodylate pH 7.2; 20 µM RHPS4 titrated with annealed oligo; two-state direct fit

Cc1cc2c3c([n+](C)c4ccc(F)cc4c3c1)-c1cc(F)ccc1N2C
melting temperature increase [1]: 7.2 °C | melting temperature increase [2]: 14.9 °C | Ka [3]: 0.5 ± 0.3 × 10^6 /M | ΔTm [4]: 15 °C | Ka [5]: 0.5 ± 0.3 × 10^6 /M
